Experiment: gradient 5% acetonitrile 3 min, to 50% in 2 min, to 85% in 15 min, held 3 min, 100 µL/min
Conditions: column: Zorbax Extend-C18 2.1 x 50 mm; eluents: water / acetonitrile, 0.1% formic acid
Outline: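 Pure standards were analyzed in mixtures of ~100 molecules using HPLC coupled to a quadrupole time-of-flight mass spectrometer, in both positive and negative ionization mode. Separation used a Zorbax Extend-C18 column (2.1 × 50 mm, 1.8 μm) at 100 μL/min, with water and acetonitrile each containing 0.1% formic acid. Dead and dwell volumes were 40 μL and 900 μL, and data were collected over 3 months. Retention time was read from computationally picked adduct peaks, each inspected manually.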

CCc1noc2nc(C)n(CC(=O)NCc3ccc(F)cc3)c(=O)c12
RP-LC retention time: 797 s

O=C(CN1CCN(C(=O)c2ccco2)CC1)Nc1cc(Cl)ccc1Cl
RP-LC retention time: 704 s

Fc1cccc(F)c1C1SCc2nc3ccccc3n21 (stereo unspecified)
RP-LC retention time: 797 s

COc1ccc(S(=O)(=O)N2CCC[C@@H]2C(=O)NCc2csc(C)n2)cc1OC
RP-LC retention time: 662 s

O=C1NCCCn2cc(S(=O)(=O)Nc3cccc(Cl)c3)cc21
RP-LC retention time: 680 s

CCOCC(=O)N1C[C@@H]2CCCN3CCC[C@@H]([C@H]23)[C@H]1CCCC(=O)N1CCOCC1
RP-LC retention time: 563 s

COc1ccc2[nH]cc(CCNC(=O)c3cn(-c4ccc(F)cc4)nn3)c2c1
RP-LC retention time: 868 s

Cc1csc(-c2cc(S(=O)(=O)NCCC3=CCCCC3)cn2CC(=O)N2CCCC2)n1
RP-LC retention time: 1030 s

c1ccc(-c2noc(-c3ccc(N4CCN(c5ccccn5)CC4)nc3)n2)cc1
RP-LC retention time: 768 s

CC(C)c1ccc(NC(=O)c2cn3c(n2)CCCC3)cc1
RP-LC retention time: 684 s

O=C(C1CCc2nc(N3CCCC3)ncc2C1)N1CCN(Cc2ccc3c(c2)OCO3)CC1 (stereo unspecified)
RP-LC retention time: 566 s

CCOC(=O)C1=CN(CC(=O)NCc2ccc(Cl)cc2)S(=O)(=O)N=C1C
RP-LC retention time: 906 s

O=C(Oc1ccc[nH]c1=O)c1cccc(Cl)c1
RP-LC retention time: 756 s

CCN1c2ccc(C)cc2C(=O)NC12CCN(C(=O)c1ccc(OC)cc1)CC2
RP-LC retention time: 810 s

COc1cccc(S(=O)(=O)N2CCC3(CC2)N(C2CCCC2)C(=O)CS3=O)c1 (stereo unspecified)
RP-LC retention time: 780 s

CCC(C)c1ccc(-c2csc(NC(C)=O)n2)cc1 (stereo unspecified)
RP-LC retention time: 1030 s

O=C(NCc1c(F)cccc1F)c1csc(Nc2ncccn2)n1
RP-LC retention time: 695 s

Cc1ccc(-n2cc(C(=O)OCC(=O)OC(C)(C)C)c3ccccc3c2=O)cc1
RP-LC retention time: 1210 s

CCn1c(CN2CCN(S(C)(=O)=O)CC2)nc2cc(NC(C)=O)ccc21
RP-LC retention time: 588 s

O=C(Cn1cnc2ccccc21)NCCOc1cccc2cccnc12
RP-LC retention time: 527 s

Cc1nc(C2CC23CCN(S(=O)(=O)c2c(C)c(C)cc(C)c2C)CC3)no1 (stereo unspecified)
RP-LC retention time: 1170 s

CC(C)c1noc(C2(NC(=O)c3ccc(C(F)(F)F)cc3)CCCCC2)n1
RP-LC retention time: 1130 s

COc1ccccc1-c1nnc(-c2ccc(C)c(S(=O)(=O)N(C)C)c2)o1
RP-LC retention time: 895 s

O=C(NCCCN1CCCc2ccccc21)C1CCc2nc(N3CCCCC3)ncc2C1 (stereo unspecified)
RP-LC retention time: 827 s

CCCn1ccc2sc(C)c(C(=O)NCc3ccc(OC)cc3)c2c1=O
RP-LC retention time: 836 s

O=C(O)c1cn(-c2ccc3c(c2)CCC3)nn1
RP-LC retention time: 768 s

CCN(CC)S(=O)(=O)c1cc(-c2nnc(-c3ccccc3)o2)ccc1C
RP-LC retention time: 1080 s

CCCN1C(=O)C(CC(=O)NCC2CC2)Sc2ncccc21 (stereo unspecified)
RP-LC retention time: 697 s

Cc1nc(N2CCOCC2)c2c(C(=O)NCc3ccc(Cl)cc3)c(C)oc2n1
RP-LC retention time: 797 s

O=C(Cn1cnc(-c2noc(-c3ccncc3)n2)c1)NCc1ccc(Cl)cc1
RP-LC retention time: 695 s

COC[C@@H]1CN(C(=O)c2occc2C)C[C@H]1c1nc(C2CC2)no1
RP-LC retention time: 816 s

CCc1noc(C2CCCCN2Cc2nc(-c3cccnc3)no2)n1 (stereo unspecified)
RP-LC retention time: 821 s

COc1cc(C(=O)Nc2nc3ccc4nc(SC)sc4c3s2)cc(OC)c1OC
RP-LC retention time: 1080 s

CCNC(=O)c1cc(C)nc2ccc(CC)cc12
RP-LC retention time: 582 s

Cc1ccc(NC(=O)Nc2ccc(NC(=O)N3CCC(C(=O)NCC4CC4)CC3)cc2)cc1
RP-LC retention time: 740 s

O=C(NCCCN1CCc2ccccc2C1)c1c(OCC2CC2)cc(=O)n2c1CCCCC2
RP-LC retention time: 566 s

CCOc1cccc(-c2noc(Cc3nnc(-c4cccc(F)c4)o3)n2)c1
RP-LC retention time: 1070 s

COc1ccc(C(=O)N2CCC3(CC2)N=C(c2ccccc2)NO3)c(OC)c1
RP-LC retention time: 755 s

Cc1ccc(-c2nc(C)cc(OCC(=O)Nc3ccccc3C)n2)cc1
RP-LC retention time: 1030 s

COc1ccc(-c2csc(Nc3ccc(Br)cn3)n2)cc1OC
RP-LC retention time: 1100 s

Cc1nn(CCCC(=O)N2CCN(c3ccccn3)CC2)c(=O)c2cc3sccc3n12
RP-LC retention time: 587 s

COc1ccc(OCc2nc(Cc3nc(-c4cccc(C)c4)oc3C)no2)cc1
RP-LC retention time: 1160 s

Cc1noc(-c2ccc(-n3ncc(C(=O)N4CCCC4)c3C)nc2)n1
RP-LC retention time: 699 s

COCCCn1c(=O)c2ccccc2n(Cc2nc(-c3cccc(C(F)(F)F)c3)no2)c1=O
RP-LC retention time: 1080 s

CCc1ccc2[nH]c3c(c(=O)c2c1)CN(CC(=O)NCc1ccccc1OC)CC3
RP-LC retention time: 621 s

O=C1NC(c2cccc3ccccc23)Nc2ccccc21 (stereo unspecified)
RP-LC retention time: 776 s

O=C(N[C@@H]1CN(Cc2ccc(C(F)(F)F)cc2)CC[C@@H]1CO)C1CC1
RP-LC retention time: 614 s

CCN1C(=O)Cc2cc(C(=O)N3CCN(c4ccccc4F)CC3)ccc21
RP-LC retention time: 848 s

CCCc1nc2ccc(CCC(=O)NCc3ccc(F)cc3)cc2[nH]1
RP-LC retention time: 624 s

CS(=O)(=O)Nc1ccc(C2(C(=O)NCc3cccs3)CCCCC2)cc1
RP-LC retention time: 851 s

CC(C)CN(CC(C)C)C(=O)C1CCN(S(=O)(=O)c2cccc3nsnc23)CC1
RP-LC retention time: 1040 s

Cc1ccccc1-c1nc2ccccc2n1CC(N)=O
RP-LC retention time: 616 s

NC1=NCC2c3ccccc3Cc3ccccc3N12 (stereo unspecified)
RP-LC retention time: 707 s

Cc1cc(C)cc(S(=O)(=O)N2CCC3(CC2)NCCN=C3NCc2cccc(F)c2)c1
RP-LC retention time: 772 s

O=C(Nc1nccs1)C1CCN(C(=O)c2cccc(-n3cnnn3)c2)CC1
RP-LC retention time: 625 s

CN(C)CCNC(=O)c1ccc(CS(=O)Cc2ccc(Cl)cc2)o1 (stereo unspecified)
RP-LC retention time: 604 s

Cc1ccccc1OCC(=O)Nc1nc(-c2ccccc2)cs1
RP-LC retention time: 1110 s

O=C(NC1CCCCC1)C1c2cccn2CC(=O)N1Cc1ccc(F)cc1 (stereo unspecified)
RP-LC retention time: 918 s

O=C(COc1ccccc1F)NCC1CCN(S(=O)(=O)C2CC2)CC1
RP-LC retention time: 712 s

Cc1ccc(C)c(CNC(=O)c2ccc3ncnc(N4CCCC4)c3c2)c1
RP-LC retention time: 678 s

COc1ccccc1CNC(=O)CSc1cc(N2CCN(c3ccccc3OC)CC2)ncn1
RP-LC retention time: 888 s

CC(C)CC(=O)N1CCN(c2nc3ccccc3n(CC(C)C)c2=O)CC1
RP-LC retention time: 1080 s

COc1ccc(OC)c(NS(=O)(=O)c2cc3c(s2)CCN(C(=O)C2CC2)C3)c1
RP-LC retention time: 821 s

CCN1C(=O)COc2ccc(-c3nc(NC(=O)C(C)C)sc3C)cc21
RP-LC retention time: 909 s

Cc1oc(C2CCC2)nc1C(=O)NCc1ccccc1C(F)(F)F
RP-LC retention time: 1130 s

O=C(NCc1ccc(Cl)cc1)C1CCCN(c2cnc3nccnc3c2)C1 (stereo unspecified)
RP-LC retention time: 731 s

COC(=O)C1=CN(c2cc(Cl)c(OC)cc2OC)c2ccc(F)cc2S1(=O)=O
RP-LC retention time: 914 s

O=C(Nc1ccc2c(c1)OCO2)c1coc(NC(=O)c2ccco2)n1
RP-LC retention time: 651 s

Cc1cccc(NC(=O)Nc2ccc(-c3cccc4[nH]nc(N)c34)cc2)c1
RP-LC retention time: 789 s

COc1cccc(-n2cc(C(=O)OCC(=O)OC(C)C)c3ccccc3c2=O)c1
RP-LC retention time: 1060 s

Cc1ccc(NC(=O)C(=O)NC(C)c2ccccc2)cc1C (stereo unspecified)
RP-LC retention time: 1010 s

CC(C)CCNC(=O)NCCc1nc2cccnc2n1Cc1ccccc1
RP-LC retention time: 726 s

Cc1ccc(NS(=O)(=O)c2cc(-c3[nH]ncc3C(=O)N3CCCC3)oc2C)cc1Cl
RP-LC retention time: 803 s

CCOC(=O)c1ccccc1NC(=O)Cn1c(=O)n(-c2ccc(C)cc2)c(=O)c2c1cc(C)n2C
RP-LC retention time: 1060 s

Nc1nc(-c2ccccc2)nn1C(=O)C1CC1
RP-LC retention time: 800 s

COc1ccc(NC(=O)CCCSc2ccc(F)cc2)c([N+](=O)[O-])c1
RP-LC retention time: 983 s

Cn1cnc(S(=O)(=O)N2CC(c3nc(-c4ccncc4)no3)C2)c1
RP-LC retention time: 590 s

COc1ccc(CC(=O)Nc2nnc(SCc3nnc(-c4ccccc4)o3)s2)cc1
RP-LC retention time: 848 s

Cc1nc(Nc2ccc(F)cn2)sc1C(=O)N1CCc2ccccc2C1
RP-LC retention time: 872 s

Cc1noc(C)c1S(=O)(=O)N1CCC(n2c(C)cnc2-c2ccccc2)CC1
RP-LC retention time: 682 s

COc1cccc(NC(=O)C2CCc3nc(N4CCCCC4)ncc3C2)c1 (stereo unspecified)
RP-LC retention time: 782 s

Cc1cccc(S(=O)(=O)N2CCC(n3cnnc3C3CC3)CC2)c1
RP-LC retention time: 713 s

CC(C)c1ccc(S(=O)(=O)N2CCC(c3cc(N)on3)CC2)cc1
RP-LC retention time: 902 s

CCN(CC)CCNC(=O)C1c2ccccc2C(=O)N(C)C1c1cccs1 (stereo unspecified)
RP-LC retention time: 611 s

Cc1cc(OCC(=O)Nc2cc(F)ccc2F)nc(N2CCN(c3ccccc3)CC2)n1
RP-LC retention time: 900 s

O=C(Cc1csc(Nc2ncccn2)n1)NCC(F)(F)F
RP-LC retention time: 626 s

COc1ccc(NC(=O)NCC(c2cccnc2)c2cn(C)c3ccccc23)c(OC)c1 (stereo unspecified)
RP-LC retention time: 697 s

CCOCCCNC(=O)c1ccc(Oc2nccnc2N2CCC(C)CC2)cc1
RP-LC retention time: 1030 s

O=C(Cc1csc(NS(=O)(=O)c2ccc(Cl)cc2)n1)NCc1cccs1
RP-LC retention time: 725 s

Cc1ccc(Nc2c(-c3cccc(Cl)c3)nc3ccc(C)cn23)cc1
RP-LC retention time: 804 s

Cc1ccc(-c2csc(NC(=O)c3sc(C)nc3C)n2)cc1
RP-LC retention time: 974 s

Reference: the METLIN SMRT retention time set (Domingo-Almenara et al. 2019)
